# Molecular target: CK2A1 (CK2α/β) (Homo sapiens, UniProt P68400)
# Assay: CK2 kinase assay, CK2A1 (CK2α/β)
# Assay type: biochemical
# Settings: Table A; read-out: CK2A1 (CK2α/β) (IC50)
# CK2A1 (CK2α/β), sequence (P68400 whole entry, species assumed): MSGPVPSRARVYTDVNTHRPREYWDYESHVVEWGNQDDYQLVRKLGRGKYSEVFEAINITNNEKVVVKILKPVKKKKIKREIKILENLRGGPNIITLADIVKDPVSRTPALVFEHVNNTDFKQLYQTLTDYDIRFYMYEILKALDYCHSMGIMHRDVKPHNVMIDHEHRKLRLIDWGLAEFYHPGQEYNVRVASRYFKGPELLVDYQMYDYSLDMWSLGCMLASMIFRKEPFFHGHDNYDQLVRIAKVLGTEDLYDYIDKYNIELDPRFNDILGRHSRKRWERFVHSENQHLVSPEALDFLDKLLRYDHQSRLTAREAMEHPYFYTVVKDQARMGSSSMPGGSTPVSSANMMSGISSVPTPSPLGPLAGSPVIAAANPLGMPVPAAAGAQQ
# CK2A1 (CK2α/β), sequence (P67870 whole entry partner, species assumed): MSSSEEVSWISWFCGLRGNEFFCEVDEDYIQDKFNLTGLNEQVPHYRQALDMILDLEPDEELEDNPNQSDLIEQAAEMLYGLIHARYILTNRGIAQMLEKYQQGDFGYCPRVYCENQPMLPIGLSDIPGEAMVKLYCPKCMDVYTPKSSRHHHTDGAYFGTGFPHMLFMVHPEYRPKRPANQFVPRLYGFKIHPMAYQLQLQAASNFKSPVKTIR
row,Compound,IC50 [nM]
1,"N#Cc1cc(Nc2nc(NC3CC3)c3ncc(C#N)n3n2)c(Cl)c(C2(O)COC2)c1 [Example 653, 2-((2-chloro-5-cyano-3-(3-hydroxyoxetan-3-yl)phenyl)amino)-4-(cyclopropylamino)imidazo[2,1-f][1,2,4]triazine-7-carbonitrile]",1.84
2,"N#Cc1cc(Nc2nc(NC3CC3)c3ncc(C#N)n3n2)c(Cl)c(C(O)C2CCNCC2)c1 (stereo not drawn) [Example 654, 2-((2-chloro-5-cyano-3-(hydroxy(piperidin-4-yl)methyl)phenyl)amino)-4-(cyclopropylamino)imidazo[2,1-f][1,2,4]triazine-7-carbonitrile]",2.68
3,"CC1(C(O)c2cc(C#N)cc(Nc3nc(NC4CC4)c4ncc(C#N)n4n3)c2Cl)COC1 (stereo not drawn) [Example 657, 2-((2-chloro-5-cyano-3-(hydroxy(3-methyloxetan-3-yl)methyl)phenyl)amino)-4-(cyclopropylamino)imidazo[2,1-f][1,2,4]triazine-7-carbonitrile]",4.2
4,"N#Cc1cc(Nc2nc(NC3CC3)c3ncc(C#N)n3n2)c(Cl)c(C2(F)CNC2)c1 [Example 659, 2-((2-chloro-5-cyano-3-(3-fluoroazetidin-3-yl)phenyl)amino)-4-(cyclopropylamino)imidazo[2,1-f][1,2,4]triazine-7-carbonitrile]",0.4
5,"N#Cc1cc(Nc2nc(NC3CC3)c3ncc(C#N)n3n2)c(Cl)c(C2(F)COC2)c1 [Example 660, 2-((2-chloro-5-cyano-3-(3-fluorooxetan-3-yl)phenyl)amino)-4-(cyclopropylamino)imidazo[2,1-f][1,2,4]triazine-7-carbonitrile]",0.35
6,"CN1CCC(F)(c2cc(C#N)cc(Nc3nc(NC4CC4)c4ncc(C#N)n4n3)c2Cl)CC1 [Example 661, 2-((2-chloro-5-cyano-3-(4-fluoro-1-methylpiperidin-4-yl)phenyl)amino)-4-(cyclopropylamino)imidazo[2,1-f][1,2,4]triazine-7-carbonitrile]",1.56
7,"N#Cc1cc(CNC2CCOCC2)c(Cl)c(Nc2nc(NC3CC3)c3ncc(C#N)n3n2)c1 [Example 664, 2-((2-chloro-5-cyano-3-(((tetrahydro-2H-pyran-4-yl)amino)methyl)phenyl)amino)-4-(cyclopropylamino)imidazo[2,1-f][1,2,4]triazine-7-carbonitrile]",0.98
8,"CN1CCN(Cc2cc(C#N)cc(Nc3nc(NC4CC4)c4ncc(C#N)n4n3)c2Cl)CC1 [Example 670, 2-((2-chloro-5-cyano-3-((4-methylpiperazin-1-yl)methyl)phenyl)amino)-4-(cyclopropylamino)imidazo[2,1-f][1,2,4]triazine-7-carbonitrile]",0.76
9,"N#Cc1cc(CN2CCC(O)CC2)c(Cl)c(Nc2nc(NC3CC3)c3ncc(C#N)n3n2)c1 [Example 672, 2-((2-chloro-5-cyano-3-((4-hydroxypiperidin-1-yl)methyl)phenyl)amino)-4-(cyclopropylamino)imidazo[2,1-f][1,2,4]triazine-7-carbonitrile]",0.62
10,"N#Cc1cc(CN2CC(O)C2)c(Cl)c(Nc2nc(NC3CC3)c3ncc(C#N)n3n2)c1 [Example 673, 2-((2-chloro-5-cyano-3-((3-hydroxyazetidin-1-yl)methyl)phenyl)amino)-4-(cyclopropylamino)imidazo[2,1-f][1,2,4]triazine-7-carbonitrile]",0.49
11,"CC(=O)c1cc(C#N)cc(Nc2nc(NC3CC3)c3ncc(C#N)n3n2)c1Cl [Example 675, 2-((3-acetyl-2-chloro-5-cyanophenyl)amino)-4-(cyclopropylamino)imidazo[2,1-f][1,2,4]triazine-7-carbonitrile]",0.24
12,"N#Cc1cc(CN=[N+]=[N-])c(Cl)c(Nc2nc(NC3CC3)c3ncc(C#N)n3n2)c1 [Example 683, 2-((3-(azidomethyl)-2-chloro-5-cyanophenyl)amino)-4-(cyclopropylamino)imidazo[2,1-f][1,2,4]triazine-7-carbonitrile]",0.14
13,"CS(=O)(=O)N1CCN(CC(O)c2cc(C#N)cc(Nc3nc(NC4CC4)c4ncc(C#N)n4n3)c2Cl)CC1 (stereo not drawn) [Example 687, 2-((2-chloro-5-cyano-3-(1-hydroxy-2-(4-(methylsulfonyl)piperazin-1-yl)ethyl)phenyl)amino)-4-(cyclopropylamino)imidazo[2,1-f][1,2,4]triazine-7-carbonitrile]",0.99

# Second part, the compound after the results:
row,IC50 [nM],Compound
1,2.82,"N#Cc1cc(Nc2nc(NC3CC3)c3ncc(C#N)n3n2)c(Cl)c(C(O)C2CCN(C3COC3)CC2)c1 (stereo not drawn) [Example 655, 2-((2-chloro-5-cyano-3-(hydroxy(1-(oxetan-3-yl)piperidin-4-yl)methyl)phenyl)amino)-4-(cyclopropylamino)imidazo[2,1-f][1,2,4]triazine-7-carbonitrile]"
2,6.73,"N#Cc1cc(Nc2nc(NC3CC3)c3ncc(C#N)n3n2)c(Cl)c(C(O)C2CN(C3COC3)C2)c1 (stereo not drawn) [Example 656, 2-((2-chloro-5-cyano-3-(hydroxy(1-(oxetan-3-yl)azetidin-3-yl)methyl)phenyl)amino)-4-(cyclopropylamino)imidazo[2,1-f][1,2,4]triazine-7-carbonitrile]"
3,2.27,"CN1CCC(N2CC(F)(c3cc(C#N)cc(Nc4nc(NC5CC5)c5ncc(C#N)n5n4)c3Cl)C2)CC1 [Example 658, 2-((2-chloro-5-cyano-3-(3-fluoro-1-(1-methylpiperidin-4-yl)azetidin-3-yl)phenyl)amino)-4-(cyclopropylamino)imidazo[2,1-f][1,2,4]triazine-7-carbonitrile]"
4,0.48,"N#Cc1cc(Nc2nc(NC3CC3)c3ncc(C#N)n3n2)c(Cl)c(C(F)C2CCNCC2)c1 (stereo not drawn) [Example 662, 2-((2-chloro-5-cyano-3-(fluoro(piperidin-4-yl)methyl)phenyl)amino)-4-(cyclopropylamino)imidazo[2,1-f][1,2,4]triazine-7-carbonitrile]"
5,0.77,"CC(=O)N1CCC(C(F)c2cc(C#N)cc(Nc3nc(NC4CC4)c4ncc(C#N)n4n3)c2Cl)CC1 (stereo not drawn) [Example 663, 2-((3-((1-acetylpiperidin-4-yl)fluoromethyl)-2-chloro-5-cyanophenyl)amino)-4-(cyclopropylamino)imidazo[2,1-f][1,2,4]triazine-7-carbonitrile]"
6,0.67,"N#Cc1cc(CN2CCC3(CC2)COC3)c(Cl)c(Nc2nc(NC3CC3)c3ncc(C#N)n3n2)c1 [Example 665, 2-((3-(2-oxa-7-azaspiro[3.5]nonan-7-ylmethyl)-2-chloro-5-cyanophenyl)amino)-4-(cyclopropylamino)imidazo[2,1-f][1,2,4]triazine-7-carbonitrile]"
7,0.3,"N#Cc1cc(CN2CCNC(=O)C2)c(Cl)c(Nc2nc(NC3CC3)c3ncc(C#N)n3n2)c1 [Example 666, 2-((2-chloro-5-cyano-3-((3-oxopiperazin-1-yl)methyl)phenyl)amino)-4-(cyclopropylamino)imidazo[2,1-f][1,2,4]triazine-7-carbonitrile]"
8,0.65,"CN(C)Cc1cc(C#N)cc(Nc2nc(NC3CC3)c3ncc(C#N)n3n2)c1Cl [Example 667, 2-((2-chloro-5-cyano-3-((dimethylamino)methyl)phenyl)amino)-4-(cyclopropylamino)imidazo[2,1-f][1,2,4]triazine-7-carbonitrile]"
9,0.76,"N#Cc1cc(CN2CCNCC2)c(Cl)c(Nc2nc(NC3CC3)c3ncc(C#N)n3n2)c1 [Example 668, 2-((2-chloro-5-cyano-3-(piperazin-1-ylmethyl)phenyl)amino)-4-(cyclopropylamino)imidazo[2,1-f][1,2,4]triazine-7-carbonitrile]"
10,0.52,"N#Cc1cc(CN2CCNCC(O)C2)c(Cl)c(Nc2nc(NC3CC3)c3ncc(C#N)n3n2)c1 (stereo not drawn) [Example 669, 2-((2-chloro-5-cyano-3-((6-hydroxy-1,4-diazepan-1-yl)methyl)phenyl)amino)-4-(cyclopropylamino)imidazo[2,1-f][1,2,4]triazine-7-carbonitrile]"
11,1.71,"N#Cc1cc(CN2CCS(=O)(=O)CC2)c(Cl)c(Nc2nc(NC3CC3)c3ncc(C#N)n3n2)c1 [Example 671, 2-((2-chloro-5-cyano-3-((1,1-dioxidothiomorpholino)methyl)phenyl)amino)-4-(cyclopropylamino)imidazo[2,1-f][1,2,4]triazine-7-carbonitrile]"
12,1.74,"CC(C)(CO)NCc1cc(C#N)cc(Nc2nc(NC3CC3)c3ncc(C#N)n3n2)c1Cl [Example 674, 2-((2-chloro-5-cyano-3-(((1-hydroxy-2-methylpropan-2-yl)amino)methyl)phenyl)amino)-4-(cyclopropylamino)imidazo[2,1-f][1,2,4]triazine-7-carbonitrile]"
13,0.41,"CC(C)(O)c1cc(C#N)cc(Nc2nc(NC3CC3)c3ncc(C#N)n3n2)c1Cl [Example 676, 2-((2-chloro-5-cyano-3-(2-hydroxypropan-2-yl)phenyl)amino)-4-(cyclopropylamino)imidazo[2,1-f][1,2,4]triazine-7-carbonitrile]"
14,1.34,"N#Cc1cc(Nc2nc(NC3CC3)c3ncc(C#N)n3n2)c(Cl)c(C(O)CN2CCOCC2)c1 (stereo not drawn) [Example 684, 2-((2-chloro-5-cyano-3-(1-hydroxy-2-morpholinoethyl)phenyl)amino)-4-(cyclopropylamino)imidazo[2,1-f][1,2,4]triazine-7-carbonitrile]"
15,0.95,"COCCNCC(O)c1cc(C#N)cc(Nc2nc(NC3CC3)c3ncc(C#N)n3n2)c1Cl (stereo not drawn) [Example 685, 2-((2-chloro-5-cyano-3-(1-hydroxy-2-((2-methoxyethyl)amino)ethyl)phenyl)amino)-4-(cyclopropylamino)imidazo[2,1-f][1,2,4]triazine-7-carbonitrile]"
16,1.3,"CN1CCN(CC(O)c2cc(C#N)cc(Nc3nc(NC4CC4)c4ncc(C#N)n4n3)c2Cl)CC1 (stereo not drawn) [Example 686, 2-((2-chloro-5-cyano-3-(1-hydroxy-2-(4-methylpiperazin-1-yl)ethyl)phenyl)amino)-4-(cyclopropylamino)imidazo[2,1-f][1,2,4]triazine-7-carbonitrile]"
17,2.4,"N#Cc1cc(Nc2nc(NC3CC3)c3ncc(C#N)n3n2)c(Cl)c(C(O)CN2CCC(O)CC2)c1 (stereo not drawn) [Example 688, 2-((2-chloro-5-cyano-3-(1-hydroxy-2-(4-hydroxypiperidin-1-yl)ethyl)phenyl)amino)-4-(cyclopropylamino)imidazo[2,1-f][1,2,4]triazine-7-carbonitrile]"

# Source: patent US9273057B2 (Bristol-Myers Squibb Company, priority 2012, dated 2016)
